Experimental data published in patent US8895738B2, “Mesoionic pyrido [1, 2-A] pyrimidine pesticides” (E I du Pont de Nemours and Company, priority 2010, dated 2014).
Structures can show the parent of a compound that is named as a salt.

How the values were obtained:
Format in all cases: in vivo
[1] = system: Rice plants (indica cultivar ‘IR-64’); test: Test O: harvest yield of rice crop outdoors, Bargarh; conditions: 12.5, 25 and 50 g a.i./ha (method: 6.25, 12.5, 25 or 50), with indoxacarb and chlorantraniliprole, controls 1370 kg/ha
Description: (§1) To evaluate the effect of application of a compound of the invention on the vigor of rice crops grown under outdoor conditions, Tests 1 through 0 were conducted. “a.i.” refers to the amount of active ingredient applied.
Rice plants (indica cultivar ‘IR-64’) were transplanted into flooded 5 m×5 m test plots of clay loam soil the Bargarh district, Orissa, India, at the end of the winter season, and grown using local agronomic practices. After 79 days, aqueous mixtures containing 30 g a.i./ha of indoxacarb in form of STEWARD® Insecticide, 20 g a.i./ha of chlorantraniliprole, and 6.25, 12.5, 25 or 50 g a.i./ha of Compound 3 were applied to the foliage of the rice plants at in a spray volume of 500 L/ha using a backpack sprayer. Plots of control rice plants were sprayed with an aqueous mixture containing 30 g a.i./ha of indoxacarb in form of STEWARD® Insecticide and 20 g a.i./ha of chlorantraniliprole (i.e. no Compound 3). Each treatment and control was replicated three times, and the plots were arranged in a randomized complete block design. At the time of application of Compound 3, the pest level of rice brown planthopper (Nilaparvata lugens) was high, i.e. much above the level considered economically significant.
Harvest yields from the crops treated with 12.5, 25 and 50 g a.i./ha of Compound 3 were 2470, 3430, 3470 and 4600 kg/ha, respectively, compared to 1370 kg/ha from the untreated controls.

[2] = system: Rice plants (indica cultivar ‘JAYA’); test: Test K: vigor, height and panicle length of rice crop outdoors, Gujarat; conditions: for crop vigor (visual rating, 0 to 200% scale, untreated = 100%): 32 days after application, Nilaparvata lugens level moderate; for average height of rice plants / average panicle length of rice plants: 45 days after application; for average height of rice plants: untreated 0.78 m; for average panicle length of rice plants: untreated 22.4 cm
Description: as §1
Rice plants (indica cultivar ‘JAYA’) were transplanted into flooded 6 m×5 m test plots of clay loam soil under shade cloth in the State of Gujarat, India during the hot season before monsoon arrival, and grown using local agronomic practices. Accordingly, after 44 days from transplanting, all rice plants in this test were sprayed with an aqueous mixture containing 30 g a.i./ha of cypermethrin and 100 g a.i./ha of picoxystrobin. After 53 days from transplanting, aqueous mixtures of Compound 3 were applied to the foliage of the rice plants at 6.25, 12.5, 25 or 50 g a.i./ha in a spray volume of 500 L/ha using a backpack sprayer. Plots of unsprayed rice plants were used as controls. Each treatment and control was replicated three times, and the plots were arranged in a randomized complete block design. At the time of application of Compound 3, the pest level of rice brown planthopper (Nilaparvata lugens) was moderate, but still above the level considered economically significant.
At 45 days after application, the height and panicle length of the rice plants were measured. Plant height was determined by measuring length from vertically extended longest leaf tip to soil surface. Panicle length was measured similarly. The average height of rice plants treated with 6.25, 12.5, 25 and 50 g a.i./ha of Compound 3 was 0.94, 0.92, 0.92 and 0.99 m, respectively, compared to 0.78 m for untreated control plants. The average panicle length of rice plants treated with 6.25, 12.5, 25 and 50 g a.i./ha of Compound 3 was 23.8, 23.7, 24.9 and 24.6 cm, respectively, compared to 22.4 cm for untreated control plants.

[3] = system: cotton melon aphid (Aphis gossypii); test: Test C: control of cotton melon aphid on cotton plant, contact and/or systemic
Source text: For evaluating control of cotton melon aphid (Aphis gossypii) through contact and/or systemic means, the test unit consisted of a small open container with a 6-7-day-old cotton plant inside. This was pre-infested with 30-40 insects on a piece of leaf according to the cut-leaf method described for Test B, and the soil of the test unit was covered with a layer of sand.
Test compounds were formulated and sprayed at 250 and/or 50 ppm as described for Test B. The applications were replicated three times. After spraying, the test units were maintained in a growth chamber and then visually rated as described for […].

[4] = system: green peach aphid (Myzus persicae); test: Test B: control of green peach aphid on radish plant, contact and/or systemic; conditions: 144 h, assessed after 6 days
Source text: For evaluating control of green peach aphid (Myzus persicae) through contact and/or systemic means, the test unit consisted of a small open container with a 12-15-day-old radish plant inside. This was pre-infested by placing on a leaf of the test plant 30-40 aphids on a piece of leaf excised from a culture plant (cut-leaf method). The aphids moved onto the test plant as the leaf piece desiccated. After pre-infestation, the soil of the test unit was covered with a layer of sand.
Test compounds were formulated and sprayed at 250, 50 and/or 10 ppm as described for Test A. The applications were replicated three times. After spraying of the formulated test compound, each test unit was allowed to dry for 1 h and then a black, screened cap was placed on top. The test units were held for 6 days in a growth chamber at 19-21° C. and 50-70% relative humidity. Each test unit was then visually assessed for insect mortality.

[5] = system: Rice plants (indica cultivar ‘MTU1010’); test: Test J: vigor of rice crop outdoors, two foliar applications, West Godavri; conditions: applied twice, 48 days after first application, Nilaparvata lugens level high
Description: as §1
Rice plants (indica cultivar ‘MTU1010’) were transplanted into flooded 5 m×3 m test plots of clay loam soil in the delta region of the West Godavri district, Andhra Pradesh, India, during the rainy season, and grown using local agronomic practices. After 52 days, aqueous mixtures of Compound 3 were applied to the foliage of the rice plants at 12.5, 25 or 50 g a.i./ha in a spray volume of 387 L/ha using a backpack sprayer. Plots of unsprayed rice plants were used as controls. Each treatment and control was replicated three times, and the plots were arranged in a randomized complete block design. At the time of application of Compound 3, the pest level of rice brown planthopper (Nilaparvata lugens) was high, i.e. much above the level considered economically significant. 20 days after the first treatment, the foliar applications of aqueous mixtures of Compound 3 were repeated at the same application rates in a spray volume of 467 L/ha.

O=c1c(-c2cccc(C(F)(F)F)c2)c([O-])[n+](Cc2cncnc2)c2ccccn12 [Compound 3, 2-hydroxy-4-oxo-1-(5-pyrimidinylmethyl)-3-[3-(trifluoromethyl)phenyl]-4H-pyrido[1,2-a]pyrimidinium inner salt]
harvest yield ([1]; 1st of four values): 2470 kg/ha | harvest yield ([1]; 2nd of four values): 3430 kg/ha | harvest yield ([1]; 3rd of four values): 3470 kg/ha | harvest yield ([1]; 4th of four values): 4600 kg/ha | crop vigor (visual rating, 0 to 200% scale, untreated = 100%) ([2]; 6.25 g a.i./ha foliar): 115% | average height of rice plants ([2]; 6.25 g a.i./ha): 0.94 m | average panicle length of rice plants ([2]; 6.25 g a.i./ha): 23.8 cm | crop vigor (visual rating, 0 to 200% scale, untreated = 100%) ([2]; 12.5 g a.i./ha foliar): 113% | average height of rice plants ([2]; 12.5 g a.i./ha): 0.92 m | average panicle length of rice plants ([2]; 12.5 g a.i./ha): 23.7 cm | crop vigor (visual rating, 0 to 200% scale, untreated = 100%) ([2]; 25 g a.i./ha foliar): 122% | average height of rice plants ([2]; 25 g a.i./ha): 0.92 m | average panicle length of rice plants ([2]; 25 g a.i./ha): 24.9 cm | crop vigor (visual rating, 0 to 200% scale, untreated = 100%) ([2]; 50 g a.i./ha foliar): 115% | average height of rice plants ([2]; 50 g a.i./ha): 0.99 m | average panicle length of rice plants ([2]; 50 g a.i./ha): 24.6 cm | mortality at 50 ppm ([3]; sprayed at 50 ppm): ≥ 80% | mortality at 250 ppm ([3]; sprayed at 250 ppm): ≥ 80% | mortality at 50 ppm ([4]; sprayed at 50 ppm): ≥ 80% | mortality at 250 ppm ([4]; sprayed at 250 ppm): ≥ 80% | crop vigor (visual rating, 0 to 200% scale, untreated = 100%) ([5]; 12.5 g a.i./ha foliar): 148% | crop vigor (visual rating, 0 to 200% scale, untreated = 100%) ([5]; 25 g a.i./ha foliar): 148% | crop vigor (visual rating, 0 to 200% scale, untreated = 100%) ([5]; 50 g a.i./ha foliar): 148%
